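Assay format: 96-well plates, 48-hour exposure. GI50 = concentration required for 50% inhibition of growth.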 Calls of active or inactive are those of the source. No stated cut-off is given here; in the data, active = GI50 up to about 1.1 µM and inactive = higher.
Tests used:
Assay in all cases: NCI tumour cell line growth inhibition, 48 h
[1] = system: SK-MEL-28
[2] = system: SK-MEL-2
[3] = system: NCI-H522
[4] = system: COLO 205
[5] = system: SF-539
[6] = system: SF-295
[7] = system: HCT-15
[8] = system: CAKI-1
[9] = system: Hs-578T
[10] = system: MOLT-4
[11] = system: Malme-3M
[12] = system: NCI/ADR-RES
[13] = system: HCT-116
[14] = system: PC-3
[15] = system: SF-268
[16] = system: SR
[17] = system: NCI-H226

| SMILES | GI50 [1] | GI50 [2] | GI50 [3] | GI50 [4] | GI50 [5] | GI50 [6] | GI50 [7] [µM] | GI50 [8] | GI50 [9] | GI50 [10] | GI50 [11] | GI50 [12] | GI50 [13] | GI50 [14] | GI50 [15] | GI50 [16] | GI50 [17] |
| --- | --- | --- | --- | --- | --- | --- | --- | --- | --- | --- | --- | --- | --- | --- | --- | --- | --- |
| Clc1c2nc3ccccc3c-2[nH]c2ccccc12 | 52.4 µM (inactive) | > 100 µM (inactive) | 20.1 µM (inactive) | 2.86 µM (inactive) | 13.7 µM (inactive) | < 0.01 µM (active) | 14.4 | 9.16 µM (inactive) | 33.7 µM (inactive) | 2.9 µM (inactive) | 30.7 µM (inactive) | 23.4 µM (inactive) | 8.55 µM (inactive) | 17.5 µM (inactive) | 64.3 µM (inactive) | 4.37 µM (inactive) |  |
| COC(=O)c1c(C)c2c(c(C)c1O)OC(=O)c1c(C)cc(O)c(C=O)c1O2 | > 100 µM (inactive) |  | > 100 µM (inactive) | > 100 µM (inactive) | > 100 µM (inactive) | > 100 µM (inactive) | > 100 |  | 12.5 µM (inactive) | > 100 µM (inactive) | > 100 µM (inactive) | > 100 µM (inactive) | > 100 µM (inactive) | > 100 µM (inactive) | > 100 µM (inactive) | > 100 µM (inactive) | > 100 µM (inactive) |
| CCN(CC)CCn1nc(N)c2nc3cc(Cl)ccc3nc21 | 76.2 µM (inactive) | 64.3 µM (inactive) | 31.8 µM (inactive) | 35.7 µM (inactive) |  | 54.2 µM (inactive) | > 100 | 51.4 µM (inactive) | > 100 µM (inactive) | 33.4 µM (inactive) | 61.7 µM (inactive) | 35.3 µM (inactive) | 48.4 µM (inactive) | 58.1 µM (inactive) | 75.5 µM (inactive) | 82.8 µM (inactive) | 70.1 µM (inactive) |
| COc1ccc(CC2OC3(CCCCC3)CC3CCCCN32)cc1 (configuration not stated) | > 100 µM (inactive) | > 100 µM (inactive) | > 100 µM (inactive) | > 100 µM (inactive) |  | > 100 µM (inactive) | > 100 | > 100 µM (inactive) | 36.7 µM (inactive) | 75.9 µM (inactive) | > 100 µM (inactive) | 50.1 µM (inactive) | 43.8 µM (inactive) | > 100 µM (inactive) | > 100 µM (inactive) | 28.8 µM (inactive) | 53 µM (inactive) |
| CS(=O)(=O)OC1CN2CCC1CC2 (configuration not stated) | > 100 µM (inactive) | > 100 µM (inactive) | > 100 µM (inactive) | > 100 µM (inactive) |  | > 100 µM (inactive) | > 100 | > 100 µM (inactive) | > 100 µM (inactive) | > 100 µM (inactive) | > 100 µM (inactive) | > 100 µM (inactive) | > 100 µM (inactive) | > 100 µM (inactive) | > 100 µM (inactive) | > 100 µM (inactive) |  |
| CCOP(=O)(OCC)c1ccc(=O)[nH]c1-c1cccs1 | > 100 µM (inactive) | > 100 µM (inactive) | > 100 µM (inactive) | > 100 µM (inactive) | > 100 µM (inactive) | > 100 µM (inactive) | > 100 | > 100 µM (inactive) | > 100 µM (inactive) | > 100 µM (inactive) | > 100 µM (inactive) | > 100 µM (inactive) | > 100 µM (inactive) | > 100 µM (inactive) | > 100 µM (inactive) | > 100 µM (inactive) | > 100 µM (inactive) |
| Cc1ccc(C2NC(=N)NC3=C2CCOc2c3ccc3ccccc23)cc1 (configuration not stated) | 5.55 µM (inactive) | 36.7 µM (inactive) | 33.5 µM (inactive) | 20.8 µM (inactive) | 1.57 µM (inactive) | 16 µM (inactive) | 4.3 | 3.66 µM (inactive) | 20.5 µM (inactive) | 7.26 µM (inactive) |  | 15.1 µM (inactive) | 1.93 µM (inactive) | 21.9 µM (inactive) | 24.7 µM (inactive) | 0.466 µM (active) |  |
| CCc1ccc2c(c1)/C(=C1/Nc3ccccc3/C1=N/O)C(=O)N2 | 12.9 µM (inactive) | 4.38 µM (inactive) | 3.43 µM (inactive) | 8.83 µM (inactive) |  | 6.25 µM (inactive) | 3.53 | 2.24 µM (inactive) | 4.57 µM (inactive) | 4.3 µM (inactive) | 3.72 µM (inactive) | 6.84 µM (inactive) | 3.27 µM (inactive) | 6.85 µM (inactive) | 8.22 µM (inactive) | 3.29 µM (inactive) | 12 µM (inactive) |
| COc1c(-c2ccc(O)c(O)c2)oc2c(O)c(O)cc(O)c2c1=O | > 100 µM (inactive) | > 100 µM (inactive) | 32.1 µM (inactive) | > 100 µM (inactive) | > 100 µM (inactive) | 39.1 µM (inactive) | 85.5 | 64.6 µM (inactive) | 49.5 µM (inactive) | 28.6 µM (inactive) | > 100 µM (inactive) | > 100 µM (inactive) | 40.4 µM (inactive) | > 100 µM (inactive) |  | 22 µM (inactive) | > 100 µM (inactive) |

From ChEMBL document CHEMBL1201862, “PubChem BioAssay data set” (2004)
